Experiment [1] deals with Litomosoides carinii. The experiment can be described thus: Antifilarial activity against circulating Litomosoides carinii microfilaria. The class given is functional. Also on record: concentration or dose not given beside the values.
Another experiment relates to Brugia pahangi. The experiment can be described thus: Antifilarial activity against Brugia pahangi in jirds was determined after subcutaneous administration of 100 mg/kg/day. The class given is functional, organism-based.
Experiment [2] has as its system Litomosoides carinii. The experiment can be described thus: Antifilarial activity against Litomosoides carinii adults. Set-up: concentration or dose not given beside the values. The class given is functional.

`CCN(CC)Cc1cc(Nc2cc(C(F)(F)F)nc(Nc3nc4cc(Cl)c(Cl)cc4[nH]3)n2)ccc1OC`: the Reduction with Litomosoides carinii [1] is below 90%; with Brugia pahangi it was “Not significant”; in the experiment on Litomosoides carinii [2], below 60%.

On to `Cc1cc(Nc2ccc(O)c(CN3CCN(C)CC3)c2)nc(Nc2nc3cc(Cl)c(Cl)cc3[nH]2)n1`, for which the Reduction in the experiment with Litomosoides carinii [1] is below 90%; in the experiment on Brugia pahangi, “Not significant”; in the experiment with Litomosoides carinii [2] it was below 60%.

With `CCN(CC)Cc1cc(Nc2cc(C)nc(Nc3nc4cc(Cl)c(Cl)cc4[nH]3)n2)ccc1OC`, the Reduction in the experiment on Litomosoides carinii [1] is below 90%; in the experiment on Brugia pahangi it was “Not significant”; with Litomosoides carinii [2] it was below 60%.

As to `CCN(CC)Cc1cc(Nc2cc(C(F)(F)F)nc(Nc3nc4cc(Cl)c(Cl)cc4[nH]3)n2)cc(-c2ccccc2)c1O`, the Reduction in the experiment on Litomosoides carinii [1] is below 90%; with Brugia pahangi it was “Not significant”; with Litomosoides carinii [2] it was below 60%.

As to `CCN(CC)Cc1cc(Nc2cc(C(F)(F)F)nc(Nc3nc4cc(Cl)c(Cl)cc4[nH]3)n2)ccc1O`, the Reduction was below 90% in the experiment with Litomosoides carinii [1], “Not significant” in the experiment on Brugia pahangi and below 60% with Litomosoides carinii [2].

For `CCN(CC)Cc1cc(Nc2cc(C)nc(Nc3nc4cc(Cl)c(Cl)cc4[nH]3)n2)ccc1O`, the Reduction in the experiment on Litomosoides carinii [1] was below 90%; in the experiment with Brugia pahangi, “Not significant”; in the experiment with Litomosoides carinii [2] it was below 60%.

In the case of `CCNCc1cc(Nc2cc(C)nc(Nc3nc4cc(Cl)c(Cl)cc4[nH]3)n2)ccc1OC`, the Reduction in the experiment on Litomosoides carinii [1] is below 90%; with Brugia pahangi, “Not significant”; with Litomosoides carinii [2], below 60%.

For `CCOc1ccc(Nc2nc(Nc3nc4cc(Cl)c(Cl)cc4[nH]3)nc3c2CCCC3)cc1CN(CC)CC`, the Reduction in the experiment with Litomosoides carinii [1] is below 90%; with Brugia pahangi, “Not significant”; in the experiment on Litomosoides carinii [2], below 60%.

As for `CCOC(=O)N1CCN(Cc2cc(Nc3cc(C(F)(F)F)nc(Nc4nc5cc(Cl)c(Cl)cc5[nH]4)n3)cc(-c3ccccc3)c2O)CC1`, the Reduction with Litomosoides carinii [1] is below 90%; in the experiment with Brugia pahangi, “Not significant”; with Litomosoides carinii [2], below 60%.

Take `CN1CCN(Cc2cc(Nc3nc(Nc4nc5cc(Cl)c(Cl)cc5[nH]4)nc4c3CCCC4)ccc2O)CC1`: the Reduction in the experiment with Litomosoides carinii [1] is below 90%; with Brugia pahangi, “Not significant”; with Litomosoides carinii [2], below 60%.

`CN1CCN(Cc2cc(Nc3cc(C(F)(F)F)nc(Nc4nc5cc(C(=O)c6ccccc6)ccc5[nH]4)n3)ccc2O)CC1`: the Reduction in the experiment on Litomosoides carinii [1] is below 90%; in the experiment with Brugia pahangi, “Not significant”; in the experiment with Litomosoides carinii [2] it was below 60%.

Consider `CCN(CC)Cc1cc(Nc2cc(C(F)(F)F)nc(Nc3nc4cc(C(=O)c5ccccc5)ccc4[nH]3)n2)ccc1O`, for which the Reduction in the experiment with Litomosoides carinii [1] was below 90%; in the experiment with Brugia pahangi it was “Not significant”; with Litomosoides carinii [2], below 60%.

Take `CCOc1ccc(Nc2cc(C)nc(Nc3nc4cc(Cl)c(Cl)cc4[nH]3)n2)cc1CN(CC)CC`: the Reduction in the experiment with Litomosoides carinii [1] was below 90%; with Brugia pahangi it was “Not significant”; in the experiment on Litomosoides carinii [2], below 60%.

Consider `CCN(CC)Cc1cc(Nc2cc(C(F)(F)F)nc(Nc3nc4cc(C(=O)c5ccccc5)ccc4[nH]3)n2)ccc1OC`, for which the Reduction in the experiment with Litomosoides carinii [1] was below 90%; with Brugia pahangi it was “Not significant”; with Litomosoides carinii [2], below 60%.

Turning to `CCNCc1cc(Nc2cc(C(F)(F)F)nc(Nc3nc4cc(C(=O)c5ccccc5)ccc4[nH]3)n2)ccc1OC`, the Reduction with Litomosoides carinii [1] is below 90%; in the experiment on Brugia pahangi it was “Not significant”; with Litomosoides carinii [2], below 60%.

Take `CNCc1cc(Nc2cc(C)nc(Nc3nc4cc(Cl)c(Cl)cc4[nH]3)n2)ccc1O`: the Reduction in the experiment on Litomosoides carinii [1] was below 90%; in the experiment with Brugia pahangi it was “Not significant”; in the experiment with Litomosoides carinii [2], below 60%.

Take `CCN(CC)Cc1cc(Nc2nc(Nc3nc4cc(Cl)c(Cl)cc4[nH]3)nc3c2CCCC3)ccc1O`: the Reduction in the experiment with Litomosoides carinii [1] was below 90%; in the experiment on Brugia pahangi, “Not significant”; in the experiment on Litomosoides carinii [2] it was below 60%.

Turning to `CCNCc1cc(Nc2nc(Nc3nc4cc(Cl)c(Cl)cc4[nH]3)nc3c2CCCC3)ccc1OC`, the Reduction with Litomosoides carinii [1] was below 90%; in the experiment on Brugia pahangi it was “Not significant”; in the experiment on Litomosoides carinii [2], below 60%.

`Cc1cc(Nc2ccc(O)c(CN3CCCC3)c2)nc(Nc2nc3cc(Cl)c(Cl)cc3[nH]2)n1`: the results for the Reduction in the experiment with Litomosoides carinii [1], with Brugia pahangi and in the experiment on Litomosoides carinii [2] were below 90%, “Not significant” and below 60%, respectively.

As for `CCN(CC)Cc1cc(Nc2cc(-c3ccccc3)nc(Nc3nc4cc(Cl)c(Cl)cc4[nH]3)n2)ccc1O`, the results for the Reduction with Litomosoides carinii [1], with Brugia pahangi and in the experiment with Litomosoides carinii [2] were below 90%, “Not significant” and below 60%, respectively.
